# Reference: ChEMBL document CHEMBL4007493 (J Med Chem, 2017)
# pEC50, pIC50, pKi: −log10 of the molar value.
# What was measured:
# D(2) dopamine receptor [1] = target: T1, D(2) dopamine receptor (Homo sapiens, UniProt P14416)
# D(2) dopamine receptor [2] = target: T1, D(2) dopamine receptor; remark: listed apart in the source
# D(2) dopamine receptor [3] = target: T1, D(2) dopamine receptor; remark: listed apart in the source
# D(2) dopamine receptor [4] = target: T1, D(2) dopamine receptor; remark: listed apart in the source
# D(2) dopamine receptor [5] = target: T1, D(2) dopamine receptor; experiment: biochemical
# D(3) dopamine receptor [6] = target: T2, D(3) dopamine receptor (Homo sapiens, UniProt P35462); experiment: biochemical
# D(2) dopamine receptor [7] = target: T1, D(2) dopamine receptor; experiment: Antagonist activity at human dopamine D2 receptor expressed in HEK293 cells assessed as reduction in quinpirole-mediated cAMP inhibition preincubated for 15 mins followed by quinpirole addition measured for 1 sec by BRET assay relative to quinpirole; assay type: functional, cell-based
# D(2) dopamine receptor [8] = target: T1, D(2) dopamine receptor; experiment: Antagonist activity at renilla luciferase-tagged human dopamine D2 receptor expressed in HEK293 cells coexpressing mVenus-fused beta-arrestin 2 assessed as reduction in quinpirole-mediated beta-arrestin 2 recruitment preincubated for 15 mins followed by quinpirole addition measured for 1 sec by BRET assay relative to quinpirole; assay type: cell-based
# D(2) dopamine receptor [9] = target: T1, D(2) dopamine receptor; experiment: Antagonist activity at human dopamine D2 receptor expressed in forskolin stimulated-HEK293 cells coexpressing renilla luciferase-fused Galphai1/GFP10-fused Ggamma2 assessed as inhibition of quinpirole-induced Galphai1 activation by BRET assay relative to quinpirole; assay type: cell-based
# D(2) dopamine receptor [10] = target: T1, D(2) dopamine receptor; experiment: Antagonist activity at human dopamine D2 receptor expressed in HEK293 cells coexpressing renilla luciferase-fused GalphaoA/GFP10-fused Ggamma2 assessed as inhibition of quinpirole-induced GalphaoA activation by BRET assay relative to quinpirole; assay type: cell-based
# D(2) dopamine receptor [11] = target: T1, D(2) dopamine receptor; remark: listed apart in the source
# D(2) dopamine receptor [12] = target: T1, D(2) dopamine receptor; remark: listed apart in the source
# D(2) dopamine receptor [13] = target: T1, D(2) dopamine receptor; remark: listed apart in the source
# D(3) dopamine receptor [14] = target: T2, D(3) dopamine receptor
# T2 sequence (P35462 whole entry): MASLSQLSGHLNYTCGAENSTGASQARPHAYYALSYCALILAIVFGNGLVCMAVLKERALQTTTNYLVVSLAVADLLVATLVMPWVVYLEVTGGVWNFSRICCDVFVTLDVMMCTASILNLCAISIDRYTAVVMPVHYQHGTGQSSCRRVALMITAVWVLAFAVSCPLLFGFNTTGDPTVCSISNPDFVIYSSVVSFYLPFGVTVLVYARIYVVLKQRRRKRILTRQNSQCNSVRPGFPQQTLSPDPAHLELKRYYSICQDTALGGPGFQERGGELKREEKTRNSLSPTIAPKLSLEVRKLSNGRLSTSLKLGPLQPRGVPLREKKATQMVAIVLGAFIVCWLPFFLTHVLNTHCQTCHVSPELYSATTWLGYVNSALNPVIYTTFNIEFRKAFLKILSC
# T1 sequence (P14416 whole entry): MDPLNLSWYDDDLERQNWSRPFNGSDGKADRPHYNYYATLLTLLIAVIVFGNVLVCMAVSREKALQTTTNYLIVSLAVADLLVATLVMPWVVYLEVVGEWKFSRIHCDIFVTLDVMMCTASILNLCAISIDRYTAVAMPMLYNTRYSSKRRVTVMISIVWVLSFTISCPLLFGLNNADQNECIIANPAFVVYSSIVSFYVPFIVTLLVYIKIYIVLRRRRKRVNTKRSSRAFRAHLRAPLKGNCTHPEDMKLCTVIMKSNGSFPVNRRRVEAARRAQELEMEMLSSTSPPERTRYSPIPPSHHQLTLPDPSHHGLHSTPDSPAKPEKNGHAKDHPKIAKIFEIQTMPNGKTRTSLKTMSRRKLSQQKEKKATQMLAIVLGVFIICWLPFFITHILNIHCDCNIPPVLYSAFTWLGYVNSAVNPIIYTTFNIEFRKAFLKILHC
SMILES,pEC50 (D(2) dopamine receptor [1]),pEC50 (D(2) dopamine receptor [2]),pEC50 (D(2) dopamine receptor [3]),pEC50 (D(2) dopamine receptor [4]),pKi (D(2) dopamine receptor [5]),pKi (D(3) dopamine receptor [6]),Imax (D(2) dopamine receptor [7]) [%],Imax (D(2) dopamine receptor [8]) [%],Imax (D(2) dopamine receptor [9]) [%],Imax (D(2) dopamine receptor [10]) [%],pIC50 (D(2) dopamine receptor [11]),pIC50 (D(2) dopamine receptor [12]),pIC50 (D(2) dopamine receptor [13]),pKi (D(3) dopamine receptor [14])
CCCN[C@@H]1Cc2cccc3c2n(c(=O)n3CCCCOCCCCc2ccccc2)C1,7.59,6.71,6.71,7.61,7.43,7.03,,,,,,,,
CN[C@@H]1Cc2cccc3c2n(c(=O)n3CCCCCCCCOCCCCc2ccccc2)C1,,,,,7.41,7.11,-10 to 0,-10 to 0,-59,-67,,,,
CN(CCCCOc1ccc2c(c1)NC(=O)CC2)[C@@H]1Cc2cccc3[nH]c(=O)n(c23)C1,8.51,7.13,6.72,6.80,7.40,6.42,,,,,,,,
CN[C@@H]1Cc2cccc3c2n(c(=O)n3CCOCCOCCOCCCCc2ccccc2)C1,6.55,6.86,6.17,7.05,7.46,6.25,-10 to 0,-47,-72,-83,,,,
CCCN(CCC)[C@@H]1Cc2cccc3c2n(c(=O)n3CCCCNC(=O)c2cc3ccccc3[nH]2)C1,7.27,6.57,6.73,7.24,,,-10 to 0,-41,-64,-27,6.15,5.44,5.70,
CN[C@@H]1Cc2cccc3c2n(c(=O)n3CCCCCCCCCCCCOCCCCc2ccccc2)C1,,,,,6.91,6.85,,,,,,,,
CCCn1c(=O)n2c3c(cccc31)C[C@@H](N(C)CCCCNC(=O)c1cc3ccccc3[nH]1)C2,,,,,7.66,8.61,,,,,,,,
CCCN(CCC)[C@@H]1Cc2cccc3c2n(c(=O)n3CCC)C1,9.00,7.69,7.77,9.05,,,,-23,-45,-24,6.80,6.03,7.00,
CN[C@@H]1Cc2cccc3c2n(c(=O)n3CCCCOc2ccc3c(c2)NC(=O)CC3)C1,6.59,5.82,6.15,6.98,6.47,5.87,-10 to 0,-27,-34,-64,,5.39,,
CCCN(CCCCNC(=O)c1cc2ccccc2[nH]1)[C@@H]1Cc2cccc3c2n(c(=O)n3CCC)C1,6.47,6.03,5.94,6.34,,,-10 to 0,-28,-31,-40,,5.53,5.34,
CN[C@@H]1Cc2cccc3c2n(c(=O)n3CCOCCOCCOCCOc2ccc3c(c2)NC(=O)CC3)C1,6.00,5.73,5.40,5.97,6.51,6.19,-10 to 0,-67,-66,-18,,,,
CN[C@@H]1Cc2cccc3c2n(c(=O)n3CCOCCOCCCCc2ccccc2)C1,5.91,5.61,5.73,6.45,6.95,6.64,,-13,-87,-36,,,,
CCCN[C@@H]1Cc2cccc3c2n(c(=O)n3CCCCCCOCCCCc2ccccc2)C1,,,,,7.26,7.09,,,,,,,,
CCCN[C@@H]1Cc2cccc3c2n(c(=O)n3CCCCNC(=O)c2cc3ccccc3[nH]2)C1,,,,,7.73,6.94,,,,,,,,
CN[C@@H]1Cc2cccc3c2n(c(=O)n3CCCCCCCCCCCCOc2ccc3c(c2)NC(=O)CC3)C1,5.84,,6.24,6.18,6.55,6.22,-10 to 0,-13,-141,-71,,,,
CN[C@@H]1Cc2cccc3[nH]c(=O)n(c23)C1 [SUMANIROLE],,,,,,,,,,,,,,6.24
CN[C@@H]1Cc2cccc3c2n(c(=O)n3CCCCCCOCCCCc2ccccc2)C1,,,,,7.22,6.86,,,,,,,,
CN[C@@H]1Cc2cccc3c2n(c(=O)n3CCCCOCCCCc2ccccc2)C1,,,,,6.92,6.42,,,,,,,,
CN[C@@H]1Cc2cccc3c2n(c(=O)n3CCCCCCCCCCOCCCCc2ccccc2)C1,6.15,5.60,,,7.62,6.95,-10 to 0,-10 to 0,-80,-33,,5.35,6.10,
